We go through four molecules from ChEMBL document CHEMBL3108720, “Polygonumosides A-D, stilbene derivatives from processed roots of Polygonum multiflorum” (J Nat Prod, 2014).

The experiment deals with Radical scavenging activity. Kind of experiment: Antioxidant activity of the compound assessed as DPPH free radical scavenging activity after 30 mins. Type of experiment: functional.
As usually defined, the IC50 is the midpoint of a concentration-inhibition curve. `OC[C@H]1O[C@@H](Oc2c(O)cc(O)cc2[C@H](O)[C@@H](c2ccc(O)cc2)c2c(O)cc(O)c(O[C@@H]3O[C@H](CO)[C@@H](O)[C@H](O)[C@H]3O)c2/C=C/c2ccc(O)cc2)[C@H](O)[C@@H](O)[C@@H]1O`: the IC50 was above 2000 µM.
Turning to `OC[C@H]1O[C@@H](Oc2c(O)cc(O)cc2[C@@H](O)[C@H](c2ccc(O)cc2)c2c(O)cc(O)c(O[C@@H]3O[C@H](CO)[C@@H](O)[C@H](O)[C@H]3O)c2/C=C/c2ccc(O)cc2)[C@H](O)[C@@H](O)[C@@H]1O`, the IC50 is above 2000 µM.
As for `O=c1oc2cc(O[C@@H]3O[C@H](CO)[C@@H](O)[C@H](O)[C@H]3O)c3c(c2c2c(O)c(O)c(O)cc12)O[C@@H](c1ccc(O)cc1)C3`, the 50% inhibitory concentration (IC50) was determined as 569 µM.
The value for `O=c1oc2cc(O[C@@H]3O[C@H](CO)[C@@H](O)[C@H](O)[C@H]3O)c3c(c2c2c(O)c(O)c(O)cc12)O[C@H](c1ccc(O)cc1)C3` was 298 µM.
